Results reported in patent publication US7759317B2, “Analgesic and anti-inflammatory compositions and methods with flavonoid glycoside-type compounds” (BMB Patent Holding Corporation, priority 2006, dated 2010).
Several values for one entry are separate records, joined by “and”; a condition that tells them apart may be missing. Identical values can stand only once.

Columns and labels:
mouse air pouch = test: Inflammation Bioassay Protocol: mouse air pouch assay, carrageenan-induced, white blood cell count in exudate; format: in vivo, mice
Description: A mouse air pouch assay was used to determine the therapeutic effectiveness of various extracts/compounds as anti-inflammatories in the present invention.
To induce air pouches, 10-15 week old mice were injected subcutaneously on the back with 3 ml of air.
On day 2, the pouches were reinflated with 1.5 m. of air.
On day 6, inflammation was induced by injecting 1 ml of a suspension of carrageenan (2% weight/volume in calcium-free and magnesium-free phosphate buffered saline (PBS) solution) into the air pouch.
100 μL of solution including test compounds were injected with the carrageenan (additional 100 μL of PBS were injected into the controls).
After 4 hours, the mice were sacrificed by including C02 narcosis, the pouches were flushed with 2 ml of PBS, and exudates were harvested.
Exudates were diluted 1:1 with 0.015% methylene blue in PBS.
White blood cells were counted in a standard hemocytometer chamber (American Optical, Buffalo, N.Y.).

[1] = system: capsaicin-treated hindpaw; test: Analgesic Bioassay Protocol: rat hindpaw withdrawal latency to radiant heat after capsaicin sensitisation; format: in vivo, Sprague-Dawley rats; conditions: n=5
Description: A rat hindpaw assay was used to determine the therapeutic effectiveness of various extracts/compounds as analgesics in the present invention. Sprague-Dawley rats (225-250 g, male) were anesthetized with urethane and placed on their sides on a disposable Chux pad. Both hindpaws for each rat were blackened with India ink which was allowed to dry for 10 minutes. An ELH projector lamp calibrated to a standard mW/cm was used as a pain stimulus and was condensed into an area of 5×15 mm on each hindpaw and placed perpendicular to, and 72 mm from, each hindpaw. Multiple baseline hindpaw withdrawal latency times were recorded (in seconds) for each medial and each lateral surface of each hindpaw. Subsequently, 100 μl of 1 μmolar capsaicin was applied with a pipette to cover one hindpaw of each animal and allowed to dry for 10 minutes, rendering the capsaicin-treated hindpaw hypersensitive to pain stimulus relative to the non-capsaicin treated hindpaw (and thereby decreasing the withdrawal latency period for the capsaicin-treated hindpaw relative to the non-treated hindpaw). Both hindpaws were then re-blackened with India ink which was allowed to dry for 10 minutes, and hindpaw withdrawal latencies were recorded for both the capsaicin-treated and untreated hindpaws on both the medial and lateral aspects of both hindpaws at 20, 25 and 30 minutes. […] By contrast, only minor drops in the withdrawal latency periods of the untreated hindpaws was seen, and the effect that was observed is believed to be due to the central mechanism effect of capsaicin-treatment on the other hindpaw. To determine the analgesic properties of each fraction, 100 μl of each fraction were applied to the capsaicin-treated hindpaw by pipette and permitted to dry (the untreated hindpaw was not treated with the fraction). Hindpaw withdrawal latencies were then recorded at 5, 20 and 30 minutes for both the capsaicin/fraction-treated hindpaw and the untreated hindpaw. An increase in the hindpaw withdrawal time was indicative of an analgesic effect by the applied fraction.

[2] = white blood cells in air pouch exudate, individual mice, 4 hours after carrageenan

O=c1cc(-c2ccc(O)c(O)c2)oc2cc(OC3OC(COC4OCC(O)(CO)C4O)C(O)C(O)C3O)cc(O)c12 [Compound 580, luteolin 7-(6″-β-D-apiofuranosyl)-β-D-glucopyranoside]
Average Cells (10^6/ml) (mouse air pouch; mean of five treated mice, control mice 2.67): 1.00 10^6/ml
anti-inflammatory effects, comparison with reference drugs (mouse air pouch; result in words): comparable to 0.5-1.0 mg/kg/week of chronic methotrexate, or 1.5 mg/kg acute dose of dexamethasone
Cells (10^6/ml) (mouse air pouch; [2]): 0.75 10^6/ml and 1.17 10^6/ml and 0.72 10^6/ml and 1.16 10^6/ml and 1.22 10^6/ml
Cells/ml (mouse air pouch; [2]): 7.50E+05 Cells/ml and 1.17E+06 Cells/ml and 7.20E+05 Cells/ml and 1.16E+06 Cells/ml and 1.22E+06 Cells/ml
Average Count (mouse air pouch; white blood cells, average of 4 hemocytometer chambers, individual mice, 100 μL test solution with carrageenan, exudate after 4 hours): 37.50 and 58.50 and 24.00 and 38.75 and 40.50
Avg All Cap ([1]; average of all post-capsaicin latencies, before test substance): 6.3 s
Avg Ext 5 ([1]; latency 5 minutes after application to capsaicin-treated hindpaw, amount (mg)): 13.7 s
Avg Ext 20 ([1]; latency 20 minutes after application to capsaicin-treated hindpaw, amount (mg)): 9.6 s
Avg Cap 20 ([1]; latency 20 minutes after capsaicin, before test substance): 5.8 s
Avg Cap 25 ([1]; latency 25 minutes after capsaicin, before test substance): 7.2 s
Avg Ext 30 ([1]; latency 30 minutes after application to capsaicin-treated hindpaw, amount (mg)): 9.4 s
Avg Cap 30 ([1]; latency 30 minutes after capsaicin, before test substance): 6 s
Avg Baseline ([1]; withdrawal latency before capsaicin and before test substance): 9.3 s
